Test results taken from ChEMBL document CHEMBL1147031, “3D-QSAR and molecular docking studies of benzaldehyde thiosemicarbazone, benzaldehyde, benzoic acid, and their derivatives as phenoloxidase inhibitors” (Bioorg Med Chem, 2007).

Experiment: Inhibition of pieris rapae Phenoloxidase
O=Cc1ccccc1O gave an IC50 of 4.14 mM. In the case of CC(C)c1ccc(C(=O)O)cc1, the IC50 is reported as 1.92 mM. Work on CCCc1ccc(C(=O)O)cc1 yielded an IC50 of 1.75 mM. Compound COc1cccc(C=O)c1O has an IC50 of 5.75 mM. For Nc1ccc(C(=O)O)cc1O, the IC50 was 25.5 mM. For CC(C)c1ccc(C=O)cc1, the IC50 was 0.86 mM. With COc1ccc(C=O)cc1 the IC50 was 1.9 mM. In the case of COc1cccc(C(=O)O)c1, the IC50 is reported as 13.3 mM. With COc1cccc(C=O)c1 the IC50 was 42.9 mM. COc1cccc(/C=N/NC(N)=S)c1 gave an IC50 of 0.00192 mM. NC(=S)N/N=C/c1ccccc1O showed an IC50 of 0.0022 mM. In the case of CC(C)(C)c1ccc(C=O)cc1, the IC50 is reported as 0.72 mM. Compound Nc1cc(C(=O)O)ccc1O has an IC50 of 3.8 mM. O=Cc1cc(O)ccc1O gave an IC50 of 1.05 mM. Compound O=Cc1ccc(O)cc1O has an IC50 of 4.88 mM. COc1ccc(C=O)c(O)c1 gave an IC50 of 2 mM. NC(=S)N/N=C\C=C\c1ccccc1 showed an IC50 of 0.00065 mM. In the case of COc1ccc(/C=N/NC(N)=S)cc1, the IC50 is reported as 0.0006 mM. Compound CC(C)(C)c1ccc(C(=O)O)cc1 has an IC50 of 2.1 mM. Work on O=C(O)c1ccc(O)cc1O [2,4-DIHYDROXYBENZOIC ACID] yielded an IC50 of 30.5 mM. With COc1ccccc1C=O [2-METHOXYBENZALDEHYDE] the IC50 was 107 mM. O=Cc1cccc(O)c1 [3-HYDROXYBENZALDEHYDE] gave an IC50 of 9.62 mM. Work on O=C(O)c1cccc(O)c1 [3-HYDROXYBENZOIC ACID] yielded an IC50 of 16.2 mM. For O=Cc1ccc(O)cc1 [4-HYDROXYBENZALDEHYDE], the IC50 was 3.12 mM. With O=Cc1ccccc1 [BENZALDEHYDE] the IC50 was 5.9 mM. In the case of O=C(O)c1ccccc1 [BENZOIC ACID], the IC50 is reported as 14.2 mM. O=C(O)c1cc(O)ccc1O [GENTISIC ACID] showed an IC50 of 32.5 mM. Compound COc1ccc(C(=O)O)cc1O [ISOVANILLIC ACID] has an IC50 of 47.5 mM. COc1ccc(C=O)cc1O [ISOVANILLIN] showed an IC50 of 24.9 mM. Compound O=C(O)c1ccc(O)cc1 [PARABEN] has an IC50 of 16.2 mM. Compound NC(=S)N/N=C/c1ccccc1 [PHENYLTHIOSEMICARBAZONE] has an IC50 of 0.00084 mM. Compound O=Cc1ccc(O)c(O)c1 [PROTOCATECHUALDEHYDE] has an IC50 of 9 mM. For O=C(O)c1ccc(O)c(O)c1 [PROTOCATECHUIC ACID], the IC50 was 29.5 mM. Compound O=C(O)c1ccccc1O [SALICYLIC ACID] has an IC50 of 33.8 mM. For COc1cc(C(=O)O)ccc1O [VANILLIC ACID], the IC50 was 69 mM. Compound COc1cc(C=O)ccc1O [VANILLIN] has an IC50 of 50.5 mM. COc1ccc(C(=O)O)cc1 [p-ANISIC ACID] gave an IC50 of 5.55 mM.
